Measured values: US6515122B1, “Tetracyclic benzimidazole derivatives and combinatorial libraries thereof” (Lion Bioscience AG, priority 1999, dated 2003)

System: Streptococcus pyogenes (ATCC# 97-03 14289)
Test: Anti-microbial screen (growth inhibition, OD 570 nm)
Type: cell-based
Conditions: ATCC97, compounds at 170 μg/ml, Todd Hewitt Broth, read at 4 hrs
Experimental: Streptococcus pyogenes (ATCC# 97-03 14289) were grown in Todd Hewitt Broth (THB) (Difco Laboratories #0492-17-6) overnight until they reached an optical density of (OD=0.636@ 570 nm) by reading 0.1 ml in a 96 well microtiter plate in a Molecular Devices Thermomax. This preparation was kept frozen as stocks in 30% v/v glycerol in 1.5 ml aliquots at −70 C° until used. Prior to screening, 1.5 ml aliquots were thawed and diluted into 50 ml THB. 200 μl of this dilution was added to 92 wells of microtiter plate. To three wells THB (200 μl) was added to serve as a blank and a sterility control. Test compounds in DMSO and appropriate concentrations of DMSO were added to Growth/Solvent Controls at 0 time. Plates were read at 0 time at 570 nm in the Molecular Devices plate reader to obtain compounds correction factors for insoluble or colored compounds. Plates were read again at 4 hrs.
Compounds were assayed at a concentration of 170 μg/ml. Percent inhibition for each compound was calculated using the following formulae:
Color correct=(O.D. 0 hr−Blank 0 hr)−(Solvent Control 0 hr−Blank 0 hr)
% Inhibition=100−(O.D. test compound 4 hr−Blank 4 hr−color correct) divided by (O.D. growth/solvent control 4 hr−Blank 4 hr)

Compound: CCN(CC)CCN(C)c1ccc2c(c1)-c1nc3cc(C(F)(F)F)ccc3n1C(CCCCNC(=O)C(F)(F)F)C(=O)N2 (stereo not drawn) [6000#56919]
- inhibition at 170 µg/mL: 95.8%

Compound: CCOC(=O)N1CCN(C(=O)c2ccc3c(c2)nc2n3C(CCCNC(=N)N)C(=O)Nc3ccc(Sc4nc(C)cc(C)n4)cc3-2)CC1 (stereo not drawn) [6000#59393]
- inhibition at 170 µg/mL: 96.1%

Compound: CCOC(=O)C1CCN(c2ccc3c(c2)-c2nc4cc(C(=O)N5CCCC(C(=O)OCC)C5)ccc4n2C(CCCNC(=N)N)C(=O)N3)CC1 (stereo not drawn) [6000#58445]
- inhibition at 170 µg/mL: 97%
